Common to all, as to assay: Glasshouse assay for herbicidal activity (pre- and post-emergence), percentage phytotoxicity
Type in all cases: in vivo

Test [1] relates to Avena fatua (AVEFA). The note with it: Avena fatua. Summed up:
(§1)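 Herbicide was applied to potted plants sown in standard soil, one day after sowing for PRE and after about 12 days for POST. Visual percentage damage ratings followed at 15 DAA (POST) and 20 DAA (PRE).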

Test [2] deals with Echinochloa crus-galli (ECHCG). As to conditions: Echinochloa crus-galli. Summed up:
as §1

Test [3] has as its system Lolium perenne (LOLPE). As to conditions: Lolium perenne. The gist of the method:
as §1

The subject of test [4] is Alopecurus myosuroides (ALOMY). As to conditions: Alopecurus myosuroides. The gist of the method:
as §1

[5] abbreviates: post-emergence, 360 h, POST-emergence, rate 250 g/ha, visual score 15 DAA (100%=total damage, 0%=no damage), read-out: Post-emergence herbicidal activity (percentage phytotoxicity) AVEFA POST.
[6] abbreviates: pre-emergence, 480 h, PRE-emergence, rate 250 g/ha, visual score 20 DAA (100%=total damage, 0%=no damage), read-out: Pre-emergence herbicidal activity (percentage phytotoxicity) AVEFA PRE.
Setting [7] is: post-emergence, 360 h, POST-emergence, rate 250 g/ha, visual score 15 DAA (100%=total damage, 0%=no damage), read-out: Post-emergence herbicidal activity (percentage phytotoxicity) ECHCG POST.
The mark [8] stands for this setting: pre-emergence, 480 h, PRE-emergence, rate 250 g/ha, visual score 20 DAA (100%=total damage, 0%=no damage), read-out: Pre-emergence herbicidal activity (percentage phytotoxicity) ECHCG PRE.
The mark [9] stands for this setting: post-emergence, 360 h, POST-emergence, rate 250 g/ha, visual score 15 DAA (100%=total damage, 0%=no damage), read-out: Post-emergence herbicidal activity (percentage phytotoxicity) LOLPE POST.
[10] abbreviates: pre-emergence, 480 h, PRE-emergence, rate 250 g/ha, visual score 20 DAA (100%=total damage, 0%=no damage), read-out: Pre-emergence herbicidal activity (percentage phytotoxicity) LOLPE PRE.
The mark [11] stands for this setting: post-emergence, 360 h, POST-emergence, rate 250 g/ha, visual score 15 DAA (100%=total damage, 0%=no damage), read-out: Post-emergence herbicidal activity (percentage phytotoxicity) ALOMY POST.
Where [12] appears, read: pre-emergence, 480 h, PRE-emergence, rate 250 g/ha, visual score 20 DAA (100%=total damage, 0%=no damage), read-out: Pre-emergence herbicidal activity (percentage phytotoxicity) ALOMY PRE.
[13] abbreviates: post-emergence, 360 h, Rate 250 g/ha, post-emergence, assessed visually 15 DAA, 100%=total damage, 0%=no damage, read-out: Post-emergence herbicidal activity (percentage phytotoxicity) AVEFA POST.
Setting [14] is: pre-emergence, 480 h, Rate 250 g/ha, pre-emergence, assessed visually 20 DAA, 100%=total damage, 0%=no damage, read-out: Pre-emergence herbicidal activity (percentage phytotoxicity) AVEFA PRE.
Setting [15] is: post-emergence, 360 h, Rate 250 g/ha, post-emergence, assessed visually 15 DAA, 100%=total damage, 0%=no damage, read-out: Post-emergence herbicidal activity (percentage phytotoxicity) ECHCG POST.
[16] abbreviates: pre-emergence, 480 h, Rate 250 g/ha, pre-emergence, assessed visually 20 DAA, 100%=total damage, 0%=no damage, read-out: Pre-emergence herbicidal activity (percentage phytotoxicity) ECHCG PRE.
[17] abbreviates: post-emergence, 360 h, Rate 250 g/ha, post-emergence, assessed visually 15 DAA, 100%=total damage, 0%=no damage, read-out: Post-emergence herbicidal activity (percentage phytotoxicity) LOLPE POST.
The mark [18] stands for this setting: pre-emergence, 480 h, Rate 250 g/ha, pre-emergence, assessed visually 20 DAA, 100%=total damage, 0%=no damage, read-out: Pre-emergence herbicidal activity (percentage phytotoxicity) LOLPE PRE.
Setting [19] is: post-emergence, 360 h, Rate 250 g/ha, post-emergence, assessed visually 15 DAA, 100%=total damage, 0%=no damage, read-out: Post-emergence herbicidal activity (percentage phytotoxicity) ALOMY POST.
[20] abbreviates: pre-emergence, 480 h, Rate 250 g/ha, pre-emergence, assessed visually 20 DAA, 100%=total damage, 0%=no damage, read-out: Pre-emergence herbicidal activity (percentage phytotoxicity) ALOMY PRE.
Where [21] appears, read: post-emergence, 360 h, 250 g/ha, post-emergence, 15 DAA, visual assessment (100%=total damage, 0%=no damage), read-out: Post-emergence herbicidal activity (percentage phytotoxicity) AVEFA POST.
The mark [22] stands for this setting: pre-emergence, 480 h, 250 g/ha, pre-emergence, 20 DAA, visual assessment (100%=total damage, 0%=no damage), read-out: Pre-emergence herbicidal activity (percentage phytotoxicity) AVEFA PRE.
Where [23] appears, read: post-emergence, 360 h, 250 g/ha, post-emergence, 15 DAA, visual assessment (100%=total damage, 0%=no damage), read-out: Post-emergence herbicidal activity (percentage phytotoxicity) ECHCG POST.
Where [24] appears, read: pre-emergence, 480 h, 250 g/ha, pre-emergence, 20 DAA, visual assessment (100%=total damage, 0%=no damage), read-out: Pre-emergence herbicidal activity (percentage phytotoxicity) ECHCG PRE.
Where [25] appears, read: post-emergence, 360 h, 250 g/ha, post-emergence, 15 DAA, visual assessment (100%=total damage, 0%=no damage), read-out: Post-emergence herbicidal activity (percentage phytotoxicity) LOLPE POST.
Setting [26] is: pre-emergence, 480 h, 250 g/ha, pre-emergence, 20 DAA, visual assessment (100%=total damage, 0%=no damage), read-out: Pre-emergence herbicidal activity (percentage phytotoxicity) LOLPE PRE.
Setting [27] is: post-emergence, 360 h, 250 g/ha, post-emergence, 15 DAA, visual assessment (100%=total damage, 0%=no damage), read-out: Post-emergence herbicidal activity (percentage phytotoxicity) ALOMY POST.
Where [28] appears, read: pre-emergence, 480 h, 250 g/ha, pre-emergence, 20 DAA, visual assessment (100%=total damage, 0%=no damage), read-out: Pre-emergence herbicidal activity (percentage phytotoxicity) ALOMY PRE.

Like-named read-outs stand apart in the source and are kept apart here.

For the molecule `Cc1cc(-c2nccs2)cc(C)c1C1C(=O)CC(CC(=O)NC(C)(C)C)C1=O` (stereo not drawn) [Compound A186], the pest or weed control at 250 g/ha in test [1] (post-emergence, 360 h, post-emergence, 250 g/ha, 15 DAA, visual score (100%=total damage; 0%=no damage), read-out: AVEFA POST herbicidal activity (percentage phytotoxicity)) was 30%; in test [1] (pre-emergence, 480 h, pre-emergence, 250 g/ha, 20 DAA, visual score (100%=total damage; 0%=no damage), read-out: AVEFA PRE herbicidal activity (percentage phytotoxicity)), 0%; in test [2] (post-emergence, 360 h, post-emergence, 250 g/ha, 15 DAA, visual score (100%=total damage; 0%=no damage), read-out: ECHCG POST herbicidal activity (percentage phytotoxicity)) it was 80%; in test [2] (pre-emergence, 480 h, pre-emergence, 250 g/ha, 20 DAA, visual score (100%=total damage; 0%=no damage), read-out: ECHCG PRE herbicidal activity (percentage phytotoxicity)), 70%; in test [3] (post-emergence, 360 h, post-emergence, 250 g/ha, 15 DAA, visual score (100%=total damage; 0%=no damage), read-out: LOLPE POST herbicidal activity (percentage phytotoxicity)) it was 60%; in test [3] (pre-emergence, 480 h, pre-emergence, 250 g/ha, 20 DAA, visual score (100%=total damage; 0%=no damage), read-out: LOLPE PRE herbicidal activity (percentage phytotoxicity)), 60%. Besides, the pest or weed control at 250 g/ha was 40% in test [4] (post-emergence, 360 h, post-emergence, 250 g/ha, 15 DAA, visual score (100%=total damage; 0%=no damage), read-out: ALOMY POST herbicidal activity (percentage phytotoxicity)) and 40% in test [4] (pre-emergence, 480 h, pre-emergence, 250 g/ha, 20 DAA, visual score (100%=total damage; 0%=no damage), read-out: ALOMY PRE herbicidal activity (percentage phytotoxicity)).
Turning to `COc1ccc(CNC(=O)CC2CC(=O)C(c3c(C)cc(-n4cc(Cl)cn4)cc3C)C2=O)cc1` (stereo not drawn) [Compound B224], the pest or weed control at 250 g/ha in test [1] (setting [5]) was 80%; in test [1] (setting [6]), 50%; in test [2] (setting [7]) it was 90%; in test [2] (setting [8]) it was 70%; in test [3] (setting [9]), 80%; in test [3] (setting [10]), 70%. Further, the pest or weed control at 250 g/ha in test [4] (setting [11]) and in test [4] (setting [12]) was 80% in each case.
Regarding `Cc1cc(-c2ncc(Cl)cc2F)cc(C)c1C1C(=O)CC(CC(=O)NCc2cccc([N+](=O)[O-])c2)C1=O` (stereo not drawn) [Compound A122], the pest or weed control at 250 g/ha in test [1] (setting [13]) is 100%; in test [1] (setting [14]) it was 0%; in test [2] (setting [15]), 100%; in test [2] (setting [16]), 90%; in test [3] (setting [17]) it was 70%; in test [3] (setting [18]) it was 20%. Besides, the figures for the pest or weed control at 250 g/ha in test [4] (setting [19]) and in test [4] (setting [20]) were 90% and 70%, respectively.
Take `CCNC(=O)CC1CC(=O)C(c2c(C)cc(-c3ncc(Cl)cn3)cc2C)C1=O` (stereo not drawn) [Compound B305]: the pest or weed control at 250 g/ha in test [1] (setting [5]), in test [1] (setting [6]), in test [2] (setting [7]), in test [2] (setting [8]), in test [3] (setting [9]) and in test [3] (setting [10]) was 100% throughout. Also, the pest or weed control at 250 g/ha in test [4] (setting [11]) and in test [4] (setting [12]) was 100% each time.
Turning to `Cc1cc(-c2nc(C#N)cs2)cc(C)c1C1C(=O)CC(CC(=O)NC(C)(C)C)C1=O` (stereo not drawn) [Compound B30], the pest or weed control at 250 g/ha in test [1] (setting [21]) is 90%; in test [1] (setting [22]), 70%; in test [2] (setting [23]), 80%; in test [2] (setting [24]), 70%; in test [3] (setting [25]), 30%; in test [3] (setting [26]), 70%. For the same molecule, the values for the pest or weed control at 250 g/ha in test [4] (setting [27]) and in test [4] (setting [28]) were 70% and 60%, respectively.
`CC#Cc1cc(C)c(C2C(=O)CC(CC(=O)NCC(C)(C)C)C2=O)c(CC)c1` (stereo not drawn) [Compound A53]: the pest or weed control at 250 g/ha was found to be 90% in test [1] (setting [13]); 80% in test [1] (setting [14]); 100% in test [2] (setting [15]); 100% in test [2] (setting [16]); 90% in test [3] (setting [17]); 90% in test [3] (setting [18]). The values for the pest or weed control at 250 g/ha in test [4] (setting [19]) and in test [4] (setting [20]) were 100% and 90%, respectively.
For `Cc1cc(-c2ncc(Cl)cc2F)cc(C)c1C1C(=O)CC(CC(=O)NCc2cccs2)C1=O` (stereo not drawn) [Compound A125], the pest or weed control at 250 g/ha is 100% in test [1] (setting [13]); 80% in test [1] (setting [14]); 100% in test [2] (setting [15]); 100% in test [2] (setting [16]); 100% in test [3] (setting [17]); 90% in test [3] (setting [18]). In addition, the pest or weed control at 250 g/ha in test [4] (setting [19]) was found to be 90%; in test [4] (setting [20]), 70%.
As to `COc1ccc(CNC(=O)CC2CC(=O)C(c3c(C)cc(-c4ncc(F)cn4)cc3C)C2=O)cc1` (stereo not drawn) [Compound B271], the pest or weed control at 250 g/ha in test [1] (setting [5]) was 100%; in test [1] (setting [6]) it was 80%; in test [2] (setting [7]), 100%; in test [2] (setting [8]) it was 100%; in test [3] (setting [9]), 90%; in test [3] (setting [10]), 80%. Also, the values for the pest or weed control at 250 g/ha in test [4] (setting [11]) and in test [4] (setting [12]) were 100% and 80%, respectively.
As for `Cc1cc(C)c(C2C(=O)CC(CC(=O)NCC3CC3C(F)F)C2=O)c(C)c1` (stereo not drawn) [Compound B60], the pest or weed control at 250 g/ha in test [1] (setting [21]) came out at 80%; in test [1] (setting [22]), 60%; in test [2] (setting [23]), 90%; in test [2] (setting [24]) it was 90%; in test [3] (setting [25]), 80%; in test [3] (setting [26]) it was 80%. Besides, the pest or weed control at 250 g/ha in test [4] (setting [27]) amounted to 80%; in test [4] (setting [28]), 90%.

These data come from patent US10206394B2, “Herbicidal compounds” (Syngenta Participations AG, priority 2014, dated 2019).
